Results from US12115161B2, “Prophylactic and/or therapeutic agent for inflammatory diseases which contains pyrrolopyrimidine compound as active ingredient” (KEIO UNIVERSITY, priority 2018, dated 2024).

Key:
[1] = test system: human monocytic cell line THP-1; experiment: IL-6 production inhibitory effect of BAFF in IFNγ-precultured THP-1 cells (Example 2); assay type: cell-based; details: for relative amount of IL-6 production: 30 μM, control (BAFF only) = 100%
Protocol: In 24-well plates (manufactured by Corning Inc.) in a RPMI-1640 culture medium (produced by ATCC) containing 10% fetal bovine serum (produced by JRH Biosciences), 5×10^5 cells of human monocytic leukemia cell line THP-1 (obtained from a bioresource bank, Japanese Collection of Research Bioresource) were seeded per well. IFNγ (interferon γ, produced by BD Pharmingen) was added to a final concentration of 200 ng/mL and cultured in a 5% CO2 environment at 37° C. After four days of culture, the culture broth in each well was removed and the cells were washed twice with the culture medium, followed by addition of the culture medium containing a final concentration of 2 μg/mL of recombinant human soluble BAFF (produced by Chemicon), and respective test compounds were added to a final concentration of 20 μM or 2 μM to continue the culture in the same conditions. After three days of culture, the culture supernatant was collected to determine the IL-6 content in the supernatant by ELISA. For ELISA, mouse anti-human IL-6 antibody (produced by BD Pharmingen), biotin-labeled anti-human IL-6 antibody (produced by BD Pharmingen), and HRP-labeled streptavidin (produced by BD Pharmingen) were used. The test compound groups were used by purchasing from Asinex. In the test system, Compound 27 (BIK-13) in PTL 1 was used as a positive control (compound with inhibitory action on IL-6 production by monocytic cells). BIK-13 was the same as the compound of ADM 12880656 by Asinex Japan Inc.
In the presence of 200 ng/mL recombinant human IFNγ (same as Example 1) (entire culture scale of 24-well culture plates at 2 mL/well), 5×10^5 cells of human monocytic cell line THP-1 (same as Example 1) were cultured using a 10% FBS/RPMI 1640 culture medium in a 5% CO2 environment at 37° C. for four days (96 hours). Four days later, an operation of removing the supernatant, adding a new medium, leaving it still in an incubator, and removing the supernatant was repeated twice. After removing the supernatant, recombinant human BAFF (2 μg/mL) was dissolved together with Compound A (ADM 12880492, Asinex Japan Inc.) or Compound B (ADM 12880696, Asinex Japan Inc.) in a medium and added to the culture wells to be cultured for three days. Three days later, the culture supernatant was collected to determine the IL-6 content in the culture supernatant by IL-6 specific ELISA. As a control, instead of Compound A or Compound B, BIK-13 was used.

[2] = test system: human peripheral blood monocytes; experiment: IL-6 production inhibitory effect of BAFF from human peripheral blood monocytes (Example 3); assay type: cell-based; details: for IL-6 production inhibitory effect compared with the control: 4 days
Protocol: Monocytes were isolated from normal healthy human peripheral blood using CD14-microbeads. In the presence of 2 μg/mL recombinant human BAFF (same as Example 2) and Compound A (2 μM and 10 μM) (entire culture scale of 24-well culture plates at 2 mL/well), 5×10^5 of the isolated monocytes were cultured using a 10% FBS/RPMI 1640 culture medium in a 5% CO2 environment at 37° C. for four days. Four days later, the supernatant was removed to determine the IL-6 content in the culture supernatant by IL-6 specific ELISA. For comparison, experiments using BIK-13 instead of Compound A were also performed.

[3] = test system: peripheral blood monocytes and B cells from Sjögren syndrome patients; experiment: IgG production in coculture of BAFF-stimulated peripheral blood monocytes and B cells (Example 4); assay type: cell-based, human; details: for IL-6 production inhibitory effect compared with the control: 4 days
Protocol: Monocytes were isolated from Sjögren syndrome patient peripheral blood using CD14 microbeads, and B cells were isolated from the peripheral blood using CD19 microbeads. Using Transwell® culture plates, 2×10^5 monocytes per well were seeded in the upper plate and 1×10^5 B cells in the lower plate to be cultured in the presence of 2 μg/mL recombinant human BAFF (same as Example 2) and Compound A (1 μM and 10 μM) using a 10% FBS/RPMI 1640 culture medium in a 5% CO2 environment at 37° C. for four days (coculture of the peripheral blood monocytes and the B cells via a membrane). Four days later, the supernatant was removed and the culture supernatant was collected to determine the IgG content in the culture supernatant by ELISA. As controls, experiments in the case of not adding Compound A and the case of adding neither Compound A nor BAFF were also performed. Moreover, for comparison with the effects of Compound A, experiments using BIK-13 instead of Compound A were also performed.

[4] = test system: peripheral blood mononuclear cells (PBMC); experiment: IgG production by B cell-stimulation culture using peripheral blood mononuclear cells (Example 5); assay type: cell-based, human; details: 7 days (results not shown)
Protocol: Peripheral blood mononuclear cells were isolated from normal healthy human peripheral blood by density gradient centrifugation using Ficoll. In the presence of 5 μg/mL anti-human IgM antibody, 1 μg/mL anti-human CD40 antibody, 30 ng/mL recombinant human IL-21, 30 ng/mL recombinant human BAFF, and Compound A (0.4 μM, 2 μM, and 10 μM), 2×10^5 peripheral blood mononuclear cells were cultured using a 10% FBS/RPMI 1640 culture medium in a 5% CO2 environment at 37° C. for seven days. The cells were cultured in 96-well round-bottom culture plates in a scale of 200 μL per well. Seven days later, the supernatant was removed and the culture supernatant was collected to determine the IgG content in the culture supernatant by ELISA. As controls, experiments in the case of not adding Compound A and the case of adding neither Compound A nor BAFF were also performed. Moreover, for comparison with the effects of Compound A, experiments using BIK-13 instead of Compound A were also performed.

Structure (SMILES) | IL-6 production inhibitory effect compared with adding no compound ([1]; 1.2 μM with 2 μg/mL human BAFF, 3 days) | IL-6 production inhibitory effect compared with adding no compound ([1]; 6 μM and 30 μM with 2 μg/mL human BAFF, 3 days) | relative amount of IL-6 production [1] | IL-6 production inhibitory effect compared with the control ([2]; 2 μM with 2 μg/mL human BAFF) | IL-6 production inhibitory effect compared with the control ([2]; 10 μM with 2 μg/mL human BAFF) | relative amount of IL-6 production ([2]; 10 μM, control = 100%) | IL-6 production inhibitory effect compared with the control ([3]; 1 μM with 2 μg/mL human BAFF) | IL-6 production inhibitory effect compared with the control ([3]; 10 μM with 2 μg/mL human BAFF) | cancellation of the IgG antibody production enhancement by BAFF ([3]; 10 μM, compared with adding neither compound nor BAFF) | IL-6 production inhibitory effect compared with the control ([4]; 0.4 μM and 2 μM) | IL-6 production inhibitory effect compared with the control ([4]; 10 μM) | IL-6 production inhibitory effect compared with the control ([1]; 0.04 μM, 0.2 μM and 1 μM together with 2 μg/mL human BAFF, 3 days, ELISA) | IL-6 production inhibitory effect compared with BIK-13 ([1]; THP-1 system of Example 2)
Cc1c(C)n(C2CCCC2)c2ncnc(OC3CCN(C(=O)CN4CCCC4=O)CC3)c12 [BIK-13, reference compound] | no significant difference | significant (p<0.001) IL-6 production inhibitory effects | 52.8±2.2% | no significant difference | significant (p<0.05) IL-6 production inhibitory effect | 80.2±14.5% | no significant difference | significant (p<0.01) IL-6 production inhibitory effect | not completely cancelled | no significant difference | significant (p<0.01) IL-6 production inhibitory effect |  | 
Cc1c(C)n(C2CCCC2)c2ncnc(OC3CCN(CCC#N)CC3)c12 [Compound B, 3-[4-{(7-cyclopentyl-5,6-dimethyl-7H-pyrrolo[2,3-d]pyrimidin-4-yl)oxy}piperidin-1-yl]propanenitrile] |  |  | below 50% |  |  |  |  |  |  |  |  | significant (p<0.001) IL-6 production inhibitory effects | stronger IL-6 production inhibitory effect than BIK-13
